Among the test systems are DU-145 prostate; UO-31 renal; MDA-MB-435; OVCAR-5 ovarian; NCI-H522 lung; SK-OV-3 ovarian; KM12 colon.
Holding throughout (experiment): growth of human tumour cells (NCI), 48 h

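Interpolation was linear, between the two tested concentrations surrounding the appropriate level; five concentrations were tested over 48 hours in 96-well plates. GI50 marks 50% less growth. TGI marks complete inhibition of growth.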

Regarding `COc1cc(/C=C/C(=O)c2c(C)nc3ccccc3c2C)ccc1OCCCN1CCN(C(=O)c2ccco2)CC1`, the GI50 is 9.78 µM in the test on DU-145 prostate; 4 µM in the test on UO-31 renal; 4.55 µM in the test with MDA-MB-435; 18.1 µM in the test with OVCAR-5 ovarian; 5.06 µM in the test with NCI-H522 lung; 16.1 µM in the test on SK-OV-3 ovarian. Also, the GI50 with KM12 colon is 11.4 µM. For the same compound, the TGI in the test with DU-145 prostate amounted to 21.4 µM; with UO-31 renal, 19.6 µM; with MDA-MB-435, 19.8 µM; in the test with OVCAR-5 ovarian, 32 µM; with NCI-H522 lung, 23.9 µM; in the test with SK-OV-3 ovarian, 52 µM. The same compound came in with a TGI with KM12 colon of 24.3 µM.
On to `N#CC1C(=O)NC(c2ccccc2[N+](=O)[O-])c2sc3c(F)cccc3c21` (configuration not stated), for which the GI50 was 8.16 µM in the test on DU-145 prostate; 5.44 µM with UO-31 renal; 23.2 µM with MDA-MB-435; 0.583 µM in the test on OVCAR-5 ovarian; 14.1 µM in the test on NCI-H522 lung; 10.1 µM in the test with SK-OV-3 ovarian. The GI50 in the test with KM12 colon is 20 µM. In addition, the TGI was 46.1 µM with DU-145 prostate; 36.1 µM with UO-31 renal; greater than 83.9 µM in the test with MDA-MB-435; 4.45 µM with OVCAR-5 ovarian; 48 µM in the test on NCI-H522 lung; 62.3 µM in the test on SK-OV-3 ovarian. For the same compound, the TGI with KM12 colon came to 51.4 µM.
On to `COCc1c(-c2ccc(NC(=O)Nc3cc(C(F)(F)F)ccc3F)c(F)c2)c2c(N)ncnn2c1CN1CCOCC1`, for which the GI50 is 2.09 µM in the test with DU-145 prostate; 1.59 µM with UO-31 renal; 1.93 µM with MDA-MB-435; 3.32 µM in the test on OVCAR-5 ovarian; 1.76 µM in the test on NCI-H522 lung; 1.61 µM in the test on SK-OV-3 ovarian. In the test on KM12 colon, the GI50 is 0.041 µM. Besides, the TGI is greater than 10 µM with DU-145 prostate; greater than 10 µM in the test on UO-31 renal; greater than 10 µM in the test with MDA-MB-435; greater than 10 µM with OVCAR-5 ovarian; 4.05 µM with NCI-H522 lung; 6.88 µM in the test on SK-OV-3 ovarian. The same compound showed a TGI with KM12 colon of 5.43 µM.
In the case of `Cc1nccc2c3ccc(OCc4cn(-c5ccc(Cl)cc5)nn4)cc3n(CC(C)C)c12`, the GI50 with DU-145 prostate is 11.5 µM; with UO-31 renal, 1.72 µM; in the test with MDA-MB-435 it was 3.38 µM; in the test with OVCAR-5 ovarian, 4.68 µM; in the test on NCI-H522 lung, 4.17 µM; with SK-OV-3 ovarian, 4.25 µM. Further, the GI50 in the test on KM12 colon is 2.69 µM. Moreover, the TGI is greater than 33.3 µM with DU-145 prostate; 14 µM in the test with UO-31 renal; greater than 33.3 µM in the test on MDA-MB-435; 23.2 µM in the test with OVCAR-5 ovarian; 15.5 µM in the test on NCI-H522 lung; 16.5 µM with SK-OV-3 ovarian. Further, the TGI in the test on KM12 colon came out at 16.8 µM.
Take `O=[N+]([O-])c1ccc(Sc2ccncn2)c([N+](=O)[O-])c1`: the GI50 in the test on DU-145 prostate is 2.14 µM; in the test on UO-31 renal, 1.08 µM; with MDA-MB-435 it was 2.5 µM; in the test on OVCAR-5 ovarian, 5.25 µM; in the test on NCI-H522 lung, 0.291 µM; with SK-OV-3 ovarian it was 8.64 µM. In the test on KM12 colon, the GI50 is 2.75 µM. For the same compound, the TGI with DU-145 prostate is 9.17 µM; with UO-31 renal it was 2.84 µM; with MDA-MB-435 it was 8.56 µM; in the test on OVCAR-5 ovarian, 17.7 µM; with NCI-H522 lung it was 0.987 µM; in the test with SK-OV-3 ovarian, 21.7 µM. The TGI in the test on KM12 colon is 9 µM.
As to `Nc1c(F)cc(-c2nc3cc(F)ccc3[se]2)cc1Br`, the GI50 in the test on DU-145 prostate is greater than 54.8 µM; in the test on UO-31 renal it was 1.43 µM; with MDA-MB-435 it was 14.6 µM; with OVCAR-5 ovarian, 0.067 µM; in the test with NCI-H522 lung it was 10.6 µM; in the test on SK-OV-3 ovarian, 2.31 µM. Also, in the test on KM12 colon, the GI50 was 0.15 µM. Moreover, the TGI was greater than 100 µM with DU-145 prostate; greater than 79 µM with UO-31 renal; greater than 100 µM in the test with MDA-MB-435; greater than 33.5 µM in the test with OVCAR-5 ovarian; greater than 100 µM in the test with NCI-H522 lung; 39.3 µM with SK-OV-3 ovarian. This compound gave a TGI in the test with KM12 colon greater than 100 µM.
For the compound `O=C(/C=C/OC(=O)c1cccc(Cl)c1)c1ccc(Cl)cc1`, the GI50 in the test with DU-145 prostate is 44 µM; in the test with UO-31 renal, greater than 100 µM; with MDA-MB-435, 44.6 µM; in the test with OVCAR-5 ovarian, greater than 100 µM; in the test with NCI-H522 lung, greater than 93.3 µM; in the test with SK-OV-3 ovarian, 35.8 µM. Moreover, in the test on KM12 colon, the GI50 was greater than 74.6 µM. Moreover, the TGI in the test with DU-145 prostate was greater than 100 µM; in the test with UO-31 renal, greater than 100 µM; in the test on MDA-MB-435 it was greater than 100 µM; in the test on OVCAR-5 ovarian it was greater than 100 µM; in the test with NCI-H522 lung, greater than 100 µM; with SK-OV-3 ovarian, greater than 88.4 µM. Besides, in the test on KM12 colon, the TGI was greater than 100 µM.
With `Cn1c2ccccc2c2c(=O)n(CCCC(=O)OC(=NC3CCCCC3)NC3CCCCC3)c3c(-c4ccccc4)nnn3c21`, the GI50 with DU-145 prostate is greater than 100 µM; in the test on UO-31 renal, greater than 100 µM; in the test on MDA-MB-435 it was greater than 100 µM; in the test with OVCAR-5 ovarian, greater than 100 µM; with NCI-H522 lung, 69.5 µM; in the test with SK-OV-3 ovarian, greater than 100 µM. In the test with KM12 colon, the GI50 is greater than 100 µM. For the same compound, the TGI in the test on DU-145 prostate, in the test with UO-31 renal, with MDA-MB-435, in the test on OVCAR-5 ovarian, with NCI-H522 lung and in the test with SK-OV-3 ovarian was greater than 100 µM in each case. Also, the TGI with KM12 colon was greater than 100 µM.
Take `CCCN1CCC(c2ccc(Nc3nc(Nc4cc(F)ccc4C(N)=O)c4cc[nH]c4n3)c(OC)c2)CC1`: the GI50 was 1.02 µM with DU-145 prostate; 2.14 µM with UO-31 renal; 0.852 µM in the test with MDA-MB-435; 2.78 µM in the test on OVCAR-5 ovarian; 3.42 µM with NCI-H522 lung; 3.03 µM in the test on SK-OV-3 ovarian. Also, in the test on KM12 colon, the GI50 is 2.88 µM. Further, the TGI in the test on DU-145 prostate worked out at 4.92 µM; with UO-31 renal, 6.54 µM; in the test with MDA-MB-435, 5.86 µM; with OVCAR-5 ovarian, 9.48 µM; with NCI-H522 lung, 6.69 µM; with SK-OV-3 ovarian, 6.93 µM. Besides, in the test on KM12 colon, the TGI amounted to 6.12 µM.
Consider `COc1ccc2c(c1OC(C)=O)C1=CC(=O)CCC13CCNC3C2` (configuration not stated), for which the TGI with DU-145 prostate, with UO-31 renal, in the test with MDA-MB-435, with OVCAR-5 ovarian, in the test with NCI-H522 lung and in the test on SK-OV-3 ovarian was greater than 100 µM throughout. In the test on KM12 colon, this compound came in with a TGI greater than 100 µM.
Take `CC1=C([Se]CC(OC(=O)[C@@H](CO)NC(=O)OC(C)(C)C)C(=O)NCCCCCC(=O)OCc2ccccc2)C(=O)c2ccccc2C1=O` (some centres not stated): the GI50 in the test with DU-145 prostate is 1.82 µM; in the test on UO-31 renal it was 1.54 µM; in the test on MDA-MB-435, 1.79 µM; with OVCAR-5 ovarian, 2.09 µM; in the test on NCI-H522 lung, 2.02 µM; in the test with SK-OV-3 ovarian, 1.28 µM. The GI50 in the test with KM12 colon was 1.53 µM. For the same compound, the TGI in the test on DU-145 prostate was 3.26 µM; in the test with UO-31 renal, 3.03 µM; in the test on MDA-MB-435 it was 3.49 µM; in the test on OVCAR-5 ovarian, 3.65 µM; in the test with NCI-H522 lung it was 3.5 µM; in the test with SK-OV-3 ovarian, 2.56 µM. The TGI in the test on KM12 colon amounted to 2.9 µM.
